ChEMBL document CHEMBL1154660, “Synthesis of pyrrolo[2,3-d]pyrimidine derivatives and their antiproliferative activity against melanoma cell line” (Bioorg Med Chem Lett, 2009)

Tested on: HS27
Assay: Antiproliferative activity against human HS27 cells after 24 hrs by MTT assay
Format: cell-based
Conditions: HS27, 24 h
`Nc1ncnc2c1ccn2-c1ccc(NC(=O)Nc2ccc(Cl)c(Cl)c2)cc1` showed an IC50 of 2.9 µM. `CC(=O)Nc1ncnc2c1ccn2-c1ccc(NC(=O)c2ccc(Cl)c(C(F)(F)F)c2)cc1` gave an IC50 of over 10 µM. Molecule `Nc1ncnc2c1ccn2-c1ccc(NC(=O)c2ccc(Cl)c(C(F)(F)F)c2)cc1` has an IC50 of 5.6 µM. `Nc1ncnc2c1ccn2-c1ccc(NC(=O)Nc2ccc(Cl)c(C(F)(F)F)c2)cc1` gave an IC50 of over 10 µM. `Nc1ncnc2c1ccn2-c1ccc(NC(=O)Nc2cc(C(F)(F)F)cc(C(F)(F)F)c2)cc1` showed an IC50 of 9.5 µM. `O=C(Nc1ccc(-n2ccc3c(NC(=O)c4ccccc4)ncnc32)cc1)c1ccc(Cl)c(Cl)c1` showed an IC50 of 5 µM. In the case of `Nc1ncnc2c1ccn2-c1ccc(NC(=O)c2cccc(C(F)(F)F)c2)cc1`, the IC50 is reported as 7.1 µM. Molecule `O=C(Nc1ccc(-n2ccc3c(NC(=O)c4ccccc4)ncnc32)cc1)Nc1ccc(Cl)c(C(F)(F)F)c1` has an IC50 of 6 µM. In the case of `CC(=O)Nc1ncnc2c1ccn2-c1ccc(NC(=O)Nc2ccc(Cl)c(C(F)(F)F)c2)cc1`, the IC50 is reported as over 10 µM. For `O=C(Nc1ccc(-n2ccc3c(NC(=O)c4ccccc4)ncnc32)cc1)Nc1cccc(Cl)c1Cl`, the IC50 was 7.8 µM. In the case of `Cc1cn(-c2cc(C(=O)Nc3ccc(-n4ccc5c(NC(=O)c6ccccc6)ncnc54)cc3)cc(C(F)(F)F)c2)cn1`, the IC50 is reported as 2.8 µM. For `O=C(Nc1ccc(-n2ccc3c(NC(=O)c4ccccc4)ncnc32)cc1)c1ccc(N2CCOCC2)c(C(F)(F)F)c1`, the IC50 was 1.6 µM. For `O=C(Nc1ccc(-n2ccc3c(NC(=O)c4ccccc4)ncnc32)cc1)c1cc(C(F)(F)F)cc(C(F)(F)F)c1`, the IC50 was 6.6 µM. `O=C(Nc1ccc(-n2ccc3c(NC(=O)c4ccccc4)ncnc32)cc1)Nc1cc(C(F)(F)F)cc(C(F)(F)F)c1` gave an IC50 of over 10 µM. For `O=C(Nc1ccc(-n2ccc3c(NC(=O)c4ccccc4)ncnc32)cc1)Nc1ccc(Cl)c(Cl)c1`, the IC50 was 4.5 µM. With `CC(=O)Nc1ncnc2c1ccn2-c1ccc(NC(=O)Nc2cccc(Cl)c2Cl)cc1` the IC50 was over 10 µM. Work on `O=C(Nc1ccc(-n2ccc3c(NC(=O)c4ccccc4)ncnc32)cc1)Nc1cccc(C(F)(F)F)c1` yielded an IC50 of 4.5 µM. Molecule `O=C(Nc1ccc(-n2ccc3c(NC(=O)c4ccccc4)ncnc32)cc1)c1cccc(C(F)(F)F)c1` has an IC50 of 5.9 µM. In the case of `O=C(Nc1ccc(-n2ccc3c(NC(=O)c4ccccc4)ncnc32)cc1)c1ccc(Cl)c(C(F)(F)F)c1`, the IC50 is reported as 5.5 µM.

Tested on: not listed separately
Assay: Antiproliferative activity against human A375P cells after 24 hrs by MTT assay
Format: functional, cell-based
Conditions: not given
`Nc1ncnc2c1ccn2-c1ccc(NC(=O)Nc2ccc(Cl)c(Cl)c2)cc1` showed an IC50 of 5.4 µM. `CC(=O)Nc1ncnc2c1ccn2-c1ccc(NC(=O)c2ccc(Cl)c(C(F)(F)F)c2)cc1` gave an IC50 of over 10 µM. In the case of `Nc1ncnc2c1ccn2-c1ccc(NC(=O)c2ccc(Cl)c(C(F)(F)F)c2)cc1`, the IC50 is reported as 2.9 µM. `Nc1ncnc2c1ccn2-c1ccc(NC(=O)Nc2ccc(Cl)c(C(F)(F)F)c2)cc1` gave an IC50 of 8.1 µM. With `Nc1ncnc2c1ccn2-c1ccc(NC(=O)Nc2cc(C(F)(F)F)cc(C(F)(F)F)c2)cc1` the IC50 was 3 µM. In the case of `O=C(Nc1ccc(-n2ccc3c(NC(=O)c4ccccc4)ncnc32)cc1)c1ccc(Cl)c(Cl)c1`, the IC50 is reported as 2 µM. For `Nc1ncnc2c1ccn2-c1ccc(NC(=O)c2cccc(C(F)(F)F)c2)cc1`, the IC50 was 9.7 µM. Molecule `O=C(Nc1ccc(-n2ccc3c(NC(=O)c4ccccc4)ncnc32)cc1)Nc1ccc(Cl)c(C(F)(F)F)c1` has an IC50 of 4.6 µM. Work on `CC(=O)Nc1ncnc2c1ccn2-c1ccc(NC(=O)Nc2ccc(Cl)c(C(F)(F)F)c2)cc1` yielded an IC50 of over 10 µM. With `O=C(Nc1ccc(-n2ccc3c(NC(=O)c4ccccc4)ncnc32)cc1)Nc1cccc(Cl)c1Cl` the IC50 was 4.1 µM. With `Cc1cn(-c2cc(C(=O)Nc3ccc(-n4ccc5c(NC(=O)c6ccccc6)ncnc54)cc3)cc(C(F)(F)F)c2)cn1` the IC50 was 0.8 µM. In the case of `O=C(Nc1ccc(-n2ccc3c(NC(=O)c4ccccc4)ncnc32)cc1)c1ccc(N2CCOCC2)c(C(F)(F)F)c1`, the IC50 is reported as 0.9 µM. `O=C(Nc1ccc(-n2ccc3c(NC(=O)c4ccccc4)ncnc32)cc1)c1cc(C(F)(F)F)cc(C(F)(F)F)c1` gave an IC50 of 2 µM. `O=C(Nc1ccc(-n2ccc3c(NC(=O)c4ccccc4)ncnc32)cc1)Nc1cc(C(F)(F)F)cc(C(F)(F)F)c1` gave an IC50 of 9.8 µM. In the case of `O=C(Nc1ccc(-n2ccc3c(NC(=O)c4ccccc4)ncnc32)cc1)Nc1ccc(Cl)c(Cl)c1`, the IC50 is reported as 4 µM. For `CC(=O)Nc1ncnc2c1ccn2-c1ccc(NC(=O)Nc2cccc(Cl)c2Cl)cc1`, the IC50 was over 10 µM. For `O=C(Nc1ccc(-n2ccc3c(NC(=O)c4ccccc4)ncnc32)cc1)Nc1cccc(C(F)(F)F)c1`, the IC50 was 9.5 µM. In the case of `O=C(Nc1ccc(-n2ccc3c(NC(=O)c4ccccc4)ncnc32)cc1)c1cccc(C(F)(F)F)c1`, the IC50 is reported as 4.7 µM. Work on `O=C(Nc1ccc(-n2ccc3c(NC(=O)c4ccccc4)ncnc32)cc1)c1ccc(Cl)c(C(F)(F)F)c1` yielded an IC50 of 2.3 µM. For `CNC(=O)c1cc(Oc2ccc(NC(=O)Nc3ccc(Cl)c(C(F)(F)F)c3)cc2)ccn1` [SORAFENIB], the IC50 was 5.6 µM.
